Consider 18 compounds from patent US20180305332A1, “Bispiperidinyl Derivatives as Liver X Receptor Beta Agonists, Compositions, and Their Use” (Merck Sharp & Dohme Corp., priority 2015, published 2018).

For experiment [1], the target named is T1, GST tagged LXRbeta LBD (ligand binding domain) (Homo sapiens, UniProt P55055).
T1 construct: purchased Invitrogen pv4658.pps
T1 sequence (P55055 222-460 limits assumed): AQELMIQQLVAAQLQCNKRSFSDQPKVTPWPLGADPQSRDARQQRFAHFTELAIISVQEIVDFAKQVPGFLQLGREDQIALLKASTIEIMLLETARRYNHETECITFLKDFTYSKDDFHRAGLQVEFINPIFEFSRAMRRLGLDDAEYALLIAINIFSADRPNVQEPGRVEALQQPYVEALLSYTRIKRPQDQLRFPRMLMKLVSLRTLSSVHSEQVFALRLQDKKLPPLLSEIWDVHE
Nature of the experiment: LanthaScreen TR-FRET Liver X Receptor Coactivator Assay, LXR beta-LBD. The settings on record: relative to reference T0901317; for EC50: Inflection Point (potency), co-activator recruitment, read-out: LXR beta IP; for Emax: activity at max dose (efficacy), read-out: LXR beta act @ max dose (%). In kind it is biochemical. As for the experimental part:
(§1) Potency (Inflection Point, IP) and efficacy (Emax) are evaluated via compound-induced co-activator recruitment to glutathione-S-transferase (GST) tagged LXRbeta and LXRalpha LBD (ligand binding domain) proteins in relation to reference dual agonist compound T0901317 (N-(2,2,2-Trifluoroethyl)-N-[4-[2,2,2-trifluoro-1-hydroxy-1-(trifluoromethyl)ethyl] phenyl]benzenesulfonamide) using the LanthaScreen™ TR-FRET Liver X Receptor Coactivator Assays according to manufacturer's instructions (Invitrogen catalog number pv4658.pps and pv4655). While running the LanthaScreen™ TR-FRET Liver X Receptor Coactivator Assay, LXR alpha-LBD or LXR beta-LBD was added to ligand test compounds followed by addition of a mixture of a fluorescein-labelled coactivator peptide and terbium-conjugated anti-GST antibody. After an incubation period at room temperature, TR-FRET (time-resolved fluorescence resonance energy transfer) was measured using a filter-based instrument capable of TR-FRET, e.g. PerkinElmer Envision.
Background: In TR-FRET formats the signal depends on donor and acceptor labels being close together.

Experiment [2] concerns the target T2, GST tagged LXRalpha LBD (ligand binding domain) (Homo sapiens, UniProt Q13133).
T2 construct: purchased Invitrogen pv4655
T2 sequence (Q13133 209-447 limits assumed): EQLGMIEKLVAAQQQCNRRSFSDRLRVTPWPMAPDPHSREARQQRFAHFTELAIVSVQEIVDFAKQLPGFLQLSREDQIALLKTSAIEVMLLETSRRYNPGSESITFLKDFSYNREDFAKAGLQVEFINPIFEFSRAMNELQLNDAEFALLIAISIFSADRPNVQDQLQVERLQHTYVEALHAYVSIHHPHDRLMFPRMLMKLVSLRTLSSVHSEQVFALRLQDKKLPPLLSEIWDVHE
Put plainly: LanthaScreen TR-FRET Liver X Receptor Coactivator Assay, LXR alpha-LBD. Format: biochemical. The settings on record: relative to reference T0901317; for EC50 / LXR alpha IP (nM): Inflection Point (potency), co-activator recruitment; for EC50: read-out: LXR alpha IP; for Emax: activity at max dose (efficacy), read-out: LXR alpha act @ max dose (%). As for the experimental part: as §1

On to `CN(C)C(=O)c1ccc(N2CCC(C3CCN(C(=O)C(C)(C)c4ccccc4Cl)CC3)CC2)cc1Cl` [Example A-83, 2-chloro-4-{1′-[2-(2-chlorophenyl)-2-methylpropanoyl]-4,4′-bipiperidin-1-yl}-N,N-dimethylbenzamide], for which, in experiment [1], the EC50 came to 15 nM and the Emax is 115%. Further, in experiment [2], the EC50 amounted to 594 nM and the Emax came out at 74%.
The corresponding values for `COc1ccccc1C(C)(C)C(=O)N1CCC(C2CCN(c3ccc(C(=O)N(C)C)c(Cl)c3)CC2)CC1` [Example A-88, 2-chloro-4-{1′-[2-(2-methoxyphenyl)-2-methylpropanoyl]-4,4′-bipiperidin-1-yl}-N,N-dimethylbenzamide] are 74 nM, 101%, 1080 nM and 37%.
For `CN(C)C(=O)c1ccc(N2CCC(C3CCN(C(=O)c4c(Cl)cccc4Cl)CC3)CC2)nc1Cl` [Example B-10, 2-chloro-6-{1′-[(2,6-dichlorophenyl)carbonyl]-4,4′-bipiperidin-1-yl}-N,N-dimethylpyridine-3-carboxamide] the same measures were 161 nM, 106%, 1370 nM and 55%.
The corresponding values for `CN(C)C(=O)c1ccc(N2CCC(C3CCN(C(=O)C4(c5ccccc5F)CC4)CC3)CC2)cc1Cl` [Example A-71, 2-chloro-4-(1′-{[1-(2-fluorophenyl)cyclopropyl]carbonyl}-4,4′-bipiperidin-1-yl)-N,N-dimethylbenzamide] are 64 nM, 127%, 1640 nM and 62%.
Regarding `CN(C)C(=O)c1c(Cl)cc(N2CCC(C3CCN(C(=O)[C@](O)(c4ccccc4)C(F)(F)F)CC3)CC2)cc1Cl` [Example A-33, 2,6-dichloro-N,N-dimethyl-4-{1′-[(2R)-3,3,3-trifluoro-2-hydroxy-2-phenylpropanoyl]-4,4′-bipiperidin-1-yl}benzamide], in experiment [1], the EC50 came to 48 nM and the Emax came out at 86%. Further, in experiment [2], the EC50 amounted to 483 nM and the Emax was 25%.
Take `CN(C)S(=O)(=O)c1ccc(N2CCC(C3CCN(C(=O)[C@](O)(c4ccccc4)C(F)(F)F)CC3)CC2)cc1Cl` [Example D-4, 2-chloro-N,N-dimethyl-4-{1′-[(2R)-3,3,3-trifluoro-2-hydroxy-2-phenylpropanoyl]-4,4′-bipiperidin-1-yl}benzenesulfonamide]: the EC50 is 371 nM in experiment [1] and 2050 nM in experiment [2]. The Emax in experiment [1] came out at 89%; in experiment [2], 29%.
For the compound `CN(C)C(=O)c1ccc(N2CCC(C3CCN(C(=O)C(O)(CCc4ccccc4)C(F)(F)F)CC3)CC2)cc1Cl` (stereo not drawn) [Example A-49, 2-chloro-4-{1′-[2-hydroxy-4-phenyl-2-(trifluoromethyl)butanoyl]-4,4′-bipiperidin-1-yl}-N,N-dimethylbenzamide], in experiment [1], the EC50 amounted to 429 nM and the Emax was 32%. For the same compound, in experiment [2], the “LXR alpha IP (nM)” value is recorded as “NO IP” and the Emax came out at 16%.
On to `CN(C)C(=O)c1ccc(N2CCC(C3CCN(C(=O)C4(c5ccccc5F)CCC4)CC3)CC2)cc1Cl` [Example A-73, 2-chloro-4-(1′-{[1-(2-fluorophenyl)cyclobutyl]carbonyl}-4,4′-bipiperidin-1-yl)-N,N-dimethylbenzamide], for which, in experiment [1], the EC50 is 30 nM and the Emax was 113%. In experiment [2], the EC50 came to 1020 nM and the Emax was 61%.
`O=C(c1ccc(N2CCC(C3CCN(C(=O)[C@](O)(c4ccccc4)C(F)(F)F)CC3)CC2)cc1Cl)N1CC(n2cccn2)C1` [Example E-40, (2R)-3-[1′-(3-chloro-4-{[3-(1H-pyrazol-1-yl)azetidin-1-yl]carbonyl}phenyl)-4,4′-bipiperidin-1-yl]-1,1,1-trifluoro-3-oxo-2-phenylpropan-2-ol]: in experiment [1], the EC50 turned out to be 297 nM and the Emax came out at 52%. For the same compound, in experiment [2], the “LXR alpha IP (nM)” value is “NO IP” and the Emax came to 39%.
With `CN(C)C(=O)c1ccc(N2CCC(C3CCN(C(=O)C(F)(F)c4cccc(F)c4)CC3)CC2)cc1Cl` [Example A-69, 2-chloro-4-{1′-[difluoro(3-fluorophenyl)acetyl]-4,4′-bipiperidin-1-yl}-N,N-dimethylbenzamide], the EC50 stood at 86 nM in experiment [1] and 1770 nM in experiment [2]. Moreover, the Emax in experiment [1] was 113%; in experiment [2], 51%.
The corresponding values for `CN(C)C(=O)c1ccc(N2CCC(C3CCN(C(=O)C(C)(O)C(F)(F)F)CC3)CC2)nc1Cl` (stereo not drawn) [Example B-11, 2-chloro-N,N-dimethyl-6-[1′-(3,3,3-trifluoro-2-hydroxy-2-methylpropanoyl)-4,4′-bipiperidin-1-yl]pyridine-3-carboxamide] are 177 nM, 2200 nM, 116% and 48%.
The corresponding values for `CCC1CCCN1C(=O)c1ccc(N2CCC(C3CCN(C(=O)[C@](O)(c4ccccc4)C(F)(F)F)CC3)CC2)cc1Cl` (stereo partly drawn) [Example E-30, (2R)-3-(1′-{3-chloro-4-[(2-ethylpyrrolidin-1-yl)carbonyl]phenyl}-4,4′-bipiperidin-1-yl)-1,1,1-trifluoro-3-oxo-2-phenylpropan-2-ol] are 143 nM, 1520 nM, 74% and 15%.
In the case of `CCC(F)(C(=O)N1CCC(C2CCN(c3ccc(C(=O)N(C)C)c(Cl)c3)CC2)CC1)c1ccccc1` (stereo not drawn) [Example A-61, 2-chloro-4-[1′-(2-fluoro-2-phenylbutanoyl)-4,4′-bipiperidin-1-yl]-N,N-dimethylbenzamide], in experiment [1], the EC50 amounted to 56 nM and the Emax was determined as 115%. Further, in experiment [2], the EC50 stood at 888 nM and the Emax worked out at 53%.
The corresponding values for `CN(C)C(=O)c1ccc(N2CCC(C3CCN(C(=O)C(O)(c4cccc(F)c4)C(F)(F)F)CC3)CC2)cc1Cl` (stereo not drawn) [Example A-95, 2-chloro-N,N-dimethyl-4-{1′-[3,3,3-trifluoro-2-(3-fluorophenyl)-2-hydroxypropanoyl]-4,4′-bipiperidin-1-yl}benzamide] are 84 nM, 116%, 1330 nM and 38%.
For `CN(C)C(=O)c1ccc(N2CCC(C3CCN(C(=O)C(O)(c4cccc(Cl)c4)C(F)(F)F)CC3)CC2)cc1Cl` (stereo not drawn) [Example A-50, 2-chloro-4-{1′-[2-(3-chlorophenyl)-3,3,3-trifluoro-2-hydroxypropanoyl]-4,4′-bipiperidin-1-yl}-N,N-dimethylbenzamide] the same measures were 93 nM, 99%, 1010 nM and 20%.
For `CC(C)(C)OC(=O)NC1CN(C(=O)c2ccc(N3CCC(C4CCN(C(=O)[C@](O)(c5ccccc5)C(F)(F)C(F)(F)F)CC4)CC3)cc2Cl)C1` [Example E-65, tert-butyl {1-[(2-chloro-4-{1′-[(2R)-3,3,4,4,4-pentafluoro-2-hydroxy-2-phenylbutanoyl]-4,4′-bipiperidin-1-yl}phenyl)carbonyl]azetidin-3-yl}carbamate] the same measures were 17 nM, 137%, 635 nM and 64%.
In the case of `CN(Cc1ccon1)C(=O)c1ccc(N2CCC(C3CCN(C(=O)c4c(F)cccc4F)CC3)CC2)cc1Cl` [Example E-16, 2-chloro-4-{1′-[(2,6-difluorophenyl)carbonyl]-4,4′-bipiperidin-1-yl}-N-(isoxazol-3-ylmethyl)-N-methylbenzamide], in experiment [1], the EC50 turned out to be 137 nM and the Emax came out at 92%. In experiment [2], the EC50 came out at 1700 nM and the Emax came out at 38%.
The corresponding values for `O=C(c1ccc(N2CCC(C3CCN(C(=O)[C@@](O)(c4ccccc4)C(F)(F)F)CC3)CC2)cc1Cl)N1CCCC1` (single isomer, unassigned) [Example E-19] are 284 nM, 88%, 3140 nM and 33%.
